Test results published in the supplement of paper PMC4862054.

system: MDA-MB-468; test: normalised viability (% of control), CellTiter-Blue; higher = more viable cells (about 100 = DMSO control); settings: 10 nM; incubation time: 72 h
Procedure, shortened: (§1)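 Vehicle (100) and a positive kill control (0) anchored the normalisation of each plate, and Z'-factor was used for quality control. Breast cancer cell lines in 20 µl suspension were incubated 72 h over compound in 5 µl medium in 384-well plates, followed by CellTiter-Blue at 560/590 nm. The value is normalised viability at a single listed concentration of the series.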

Point of comparison: `CC1(C)NC(=O)N(c2ccc([N+](=O)[O-])c(C(F)(F)F)c2)C1=O` [Nilutamide], normalised viability 115%. Against it:
- CNCc1ccc(-c2[nH]c3cc(F)cc4c3c2CCNC4=O)cc1 [Rucaparib] — lower, 103%

same assay, conditions: 100 nM; incubation time: 72 h

`CC(=O)Nc1ccc(C(=O)Nc2ccccc2N)cc1` [CI-994] gave a normalised viability of 115%.

same assay, conditions: 1000 nM; incubation time: 72 h

Point of comparison: `Oc1nc(-c2ccc(C(F)(F)F)cc2)nc2c1CSCC2` [XAV-939], normalised viability 105%. Against it:
- CC(=O)Nc1ccc(C(=O)Nc2ccccc2N)cc1 [CI-994] — lower, 100%
- N.N.[Cl][Pt][Cl] [Cisplatin] — lower, 101%
- Cc1ccc(C(=O)Nc2ccc(CN3CCN(C)CC3)c(C(F)(F)F)c2)cc1C#Cc1cnc2cccnn12 [Ponatinib] — lower, 78.7%
- CN[C@@H]1C[C@H]2O[C@@](C)([C@@H]1OC)n1c3ccccc3c3c4c(c5c6ccccc6n2c5c31)C(=O)N[C@H]4O [UCN-01] — lower, 7.27%
- C[C@@H](Oc1cc(-c2cnn(C3CCNCC3)c2)cnc1N)c1c(Cl)ccc(F)c1Cl [Crizotinib] — lower, 95.3%
- CC1(C)NC(=O)N(c2ccc([N+](=O)[O-])c(C(F)(F)F)c2)C1=O [Nilutamide] — lower, 103%
- CNCc1ccc(-c2[nH]c3cc(F)cc4c3c2CCNC4=O)cc1 [Rucaparib] — the same, 105%

same assay, conditions: 10000 nM; incubation time: 72 h

Point of comparison: `Oc1nc(-c2ccc(C(F)(F)F)cc2)nc2c1CSCC2` [XAV-939], normalised viability 98.4%. Against it:
- N.N.[Cl][Pt][Cl] [Cisplatin] — higher, 106%
- CN[C@@H]1C[C@H]2O[C@@](C)([C@@H]1OC)n1c3ccccc3c3c4c(c5c6ccccc6n2c5c31)C(=O)N[C@H]4O [UCN-01] — lower, 6.64%
- C[C@@H](Oc1cc(-c2cnn(C3CCNCC3)c2)cnc1N)c1c(Cl)ccc(F)c1Cl [Crizotinib] — lower, 8.61%
- CC1(C)NC(=O)N(c2ccc([N+](=O)[O-])c(C(F)(F)F)c2)C1=O [Nilutamide] — higher, 103%
- CNCc1ccc(-c2[nH]c3cc(F)cc4c3c2CCNC4=O)cc1 [Rucaparib] — lower, 77.5%

system: Hs578T; test: as above; settings: 1 nM; incubation time: 72 h
Procedure, shortened: as §1

Point of comparison: `Cc1ccc(C(=O)Nc2ccc(CN3CCN(C)CC3)c(C(F)(F)F)c2)cc1C#Cc1cnc2cccnn12` [Ponatinib], normalised viability 105%. Against it:
- CC(=O)Nc1ccc(C(=O)Nc2ccccc2N)cc1 [CI-994] — higher, 119%

same assay, conditions: 10 nM; incubation time: 72 h

Point of comparison: `Oc1nc(-c2ccc(C(F)(F)F)cc2)nc2c1CSCC2` [XAV-939], normalised viability 90.8%. Against it:
- N.N.[Cl][Pt][Cl] [Cisplatin] — higher, 100%
- CN[C@@H]1C[C@H]2O[C@@](C)([C@@H]1OC)n1c3ccccc3c3c4c(c5c6ccccc6n2c5c31)C(=O)N[C@H]4O [UCN-01] — lower, 88.3%
- C[C@@H](Oc1cc(-c2cnn(C3CCNCC3)c2)cnc1N)c1c(Cl)ccc(F)c1Cl [Crizotinib] — higher, 102%
- CC1(C)NC(=O)N(c2ccc([N+](=O)[O-])c(C(F)(F)F)c2)C1=O [Nilutamide] — higher, 108%
- CNCc1ccc(-c2[nH]c3cc(F)cc4c3c2CCNC4=O)cc1 [Rucaparib] — higher, 112%

same assay, conditions: 100 nM; incubation time: 72 h

Point of comparison: `CC(=O)Nc1ccc(C(=O)Nc2ccccc2N)cc1` [CI-994], normalised viability 115%. Against it:
- Cc1ccc(C(=O)Nc2ccc(CN3CCN(C)CC3)c(C(F)(F)F)c2)cc1C#Cc1cnc2cccnn12 [Ponatinib] — lower, 110%

same assay, conditions: 1000 nM; incubation time: 72 h

Point of comparison: `CNCc1ccc(-c2[nH]c3cc(F)cc4c3c2CCNC4=O)cc1` [Rucaparib], normalised viability 107%. Against it:
- Oc1nc(-c2ccc(C(F)(F)F)cc2)nc2c1CSCC2 [XAV-939] — lower, 82.3%
- CC(=O)Nc1ccc(C(=O)Nc2ccccc2N)cc1 [CI-994] — lower, 92.5%
- N.N.[Cl][Pt][Cl] [Cisplatin] — higher, 139%
- Cc1ccc(C(=O)Nc2ccc(CN3CCN(C)CC3)c(C(F)(F)F)c2)cc1C#Cc1cnc2cccnn12 [Ponatinib] — lower, 73.9%
- CN[C@@H]1C[C@H]2O[C@@](C)([C@@H]1OC)n1c3ccccc3c3c4c(c5c6ccccc6n2c5c31)C(=O)N[C@H]4O [UCN-01] — lower, 7.74%
- C[C@@H](Oc1cc(-c2cnn(C3CCNCC3)c2)cnc1N)c1c(Cl)ccc(F)c1Cl [Crizotinib] — lower, 103%
- CC1(C)NC(=O)N(c2ccc([N+](=O)[O-])c(C(F)(F)F)c2)C1=O [Nilutamide] — higher, 139%

same assay, conditions: 10000 nM; incubation time: 72 h

Point of comparison: `Oc1nc(-c2ccc(C(F)(F)F)cc2)nc2c1CSCC2` [XAV-939], normalised viability 85.5%. Against it:
- N.N.[Cl][Pt][Cl] [Cisplatin] — higher, 122%
- CN[C@@H]1C[C@H]2O[C@@](C)([C@@H]1OC)n1c3ccccc3c3c4c(c5c6ccccc6n2c5c31)C(=O)N[C@H]4O [UCN-01] — lower, 0.41%
- C[C@@H](Oc1cc(-c2cnn(C3CCNCC3)c2)cnc1N)c1c(Cl)ccc(F)c1Cl [Crizotinib] — lower, 34%
- CC1(C)NC(=O)N(c2ccc([N+](=O)[O-])c(C(F)(F)F)c2)C1=O [Nilutamide] — higher, 119%
- CNCc1ccc(-c2[nH]c3cc(F)cc4c3c2CCNC4=O)cc1 [Rucaparib] — higher, 94.4%

system: MDA-MB-231; test: as above; settings: 1 nM; incubation time: 72 h
Procedure, shortened: as §1

Point of comparison: `CC(=O)Nc1ccc(C(=O)Nc2ccccc2N)cc1` [CI-994], normalised viability 104%. Against it:
- Cc1ccc(C(=O)Nc2ccc(CN3CCN(C)CC3)c(C(F)(F)F)c2)cc1C#Cc1cnc2cccnn12 [Ponatinib] — lower, 98.8%

same assay, conditions: 10 nM; incubation time: 72 h

Point of comparison: `CN[C@@H]1C[C@H]2O[C@@](C)([C@@H]1OC)n1c3ccccc3c3c4c(c5c6ccccc6n2c5c31)C(=O)N[C@H]4O` [UCN-01], normalised viability 93.7%. Against it:
- Oc1nc(-c2ccc(C(F)(F)F)cc2)nc2c1CSCC2 [XAV-939] — lower, 89.5%
- N.N.[Cl][Pt][Cl] [Cisplatin] — higher, 99.2%
